Among the data in US5084453A, “1-carboxy-1-vinyloxyimino aminothiazole cephalosporin derivatives” (priority 1988, dated 1992) are MIC values, retold here.

In brackets after ≈: the same amount, converted by molar mass. Where two headings read alike, the source gives them in different places.

Holding throughout (assay): in vitro antibacterial activity, agar plate dilution method
Common to all, as to format: cell-based

Test [1] relates to E. coli CSH(RE45)*. Conditions: Escherichia coli; 10^6 CFU/ml; β-Lactamase-producing strain; 37° C., 16 hours; read-out: MIC. The method, then:
(§1) Now, the in vitro antibacterial activities of the compounds of the present invention against various microorganisms, were measured by the following agar plate dilution method.
(§2) One platinum loopfull of each test microorganism incubated overnight in Mueller Hinton broth, was inoculated to Mueller Hinton agar (MH agaer). Such culture media containing various antibiotics in various concentrations were prepared. After incubation at 37° C. for 16 hours, the minimum inhibitory concentrations (MIC μg/ml) were measured.

The subject of test [2] is E. coli NIHJ JC2. The note with it: Escherichia coli, NIHJJC2; 10^6 CFU/ml; Mueller Hinton agar, 37° C., 16 hours; read-out: MIC. The method, then: as §1, §2
Test [3] relates to K. pneumoniae No. 42*. The note with it: Klebsiella pneumoniae, 16 h. Here is the method: as §1, §2
In test [4] the test system is M. morganii GN5407*. The note with it: Morganella morganii, GN5407, 16 h. The method, then: as §1, §2
Test [5] concerns S. aureus 209P NIHJ-JC1. Conditions: Staphylococcus aureus. The method, then:
as §1, §2

The subject of test [6] is E. coli CSH2(RK1)*. Conditions: Escherichia coli, 16 h. The method, then:
as §1, §2

For test [7], the system named is E. coli GN5482*. The note with it: Escherichia coli, GN5482, 16 h. The method, then:
as §1, §2

Test [8] concerns Ps. cepacia 23. Conditions: Burkholderia cepacia, 23; 10^6 CFU/ml; Mueller Hinton agar, 37° C., 16 hours; read-out: MIC. Here is the method:
as §1, §2

Test [9] relates to E. cloacae 963. The note with it: Enterobacter cloacae, 963, 16 h. Here is the method:
as §1, §2

Test [10] relates to S. marcescens No. 16-2*. The note with it: Serratia marcescens. Here is the method: as §1, §2
Test [11] deals with S. marcescens IAM 1184. The note with it: Serratia marcescens. The method, then: as §1, §2
Test [12] concerns A. calcoaceticus No. 4. Conditions: Acinetobacter calcoaceticus, NO.4; 10^6 CFU/ml; Mueller Hinton agar, 37° C., 16 hours; read-out: MIC. Here is the method:
as §1, §2

Test [13] concerns Ps. aeruginosa AKR17. The note with it: Pseudomonas aeruginosa, AKR17; 10^6 CFU/ml; Mueller Hinton agar, 37° C., 16 hours; read-out: MIC. The method, then: as §1, §2
The test system of test [14] is P. vulgaris HX-19. Conditions: Proteus vulgaris, HX19; 10^6 CFU/ml; Mueller Hinton agar, 37° C., 16 hours; read-out: MIC. The method, then: as §1, §2
Test [15] relates to Ps. aeruginosa IFO3445. The note with it: Pseudomonas aeruginosa. The method, then: as §1, §2
For test [16], the system named is E. cloacae Nek 39*. Conditions: Enterobacter cloacae. Here is the method: as §1, §2
Test [17] concerns K. pneumoniae PC1-602. The note with it: Klebsiella pneumoniae. The method, then:
as §1, §2

For test [18], the system named is P. vulgaris No. 33*. Conditions: Proteus vulgaris; 10^6 CFU/ml; β-Lactamase-producing strain; 37° C., 16 hours; read-out: MIC. The method, then:
as §1, §2

Test [19] relates to Ps. aeruginosa AK 109. The note with it: Pseudomonas aeruginosa, AK109; 10^6 CFU/ml; Mueller Hinton agar, 37° C., 16 hours; read-out: MIC. The method, then: as §1, §2
Test [20] deals with K. oxytoca GN10650*. Conditions: Klebsiella oxytoca, GN10650, 16 h. Here is the method:
as §1, §2

Setting [21] is: 10^6 CFU/ml, Mueller Hinton agar, 37° C., 16 hours, read-out: MIC.
Setting [22] is: IFO3445, 10^6 CFU/ml, Mueller Hinton agar, 37° C., 16 hours, read-out: MIC.
The mark [23] stands for this setting: 10^6 CFU/ml, β-Lactamase-producing strain, 37° C., 16 hours, read-out: MIC.
Setting [24] is: IAM1184, 10^6 CFU/ml, Mueller Hinton agar, 37° C., 16 hours, read-out: MIC.

What is called MIC is the smallest concentration in the dilution series that meets the test's criterion for growth inhibition.

Regarding `C=C(O/N=C(\C(=O)N[C@@H]1C(=O)N2C(C(=O)[O-])=C(C[n+]3ccc(C(=O)O)cc3)CS[C@H]12)c1csc(N)n1)C(=O)O` [Example 5, 7β-[2-(2-aminothiazol-4-yl)-2-(1-carboxy-1-vinyloxyimino)acetamido]-3-(4-carboxy-1-pyridinio)methyl-3-cephem-4-carboxylate (syn-isomer)], the MIC was 0.05 µg/mL (≈ 0.087 µM) in test [1]; 0.2 µg/mL (≈ 0.348 µM) in test [2]; 0.39 µg/mL (≈ 0.679 µM) in test [3]; 0.025 µg/mL (≈ 0.0435 µM) in test [4]; 12.5 µg/mL (≈ 21.8 µM) in test [5] (setting [21]); 0.2 µg/mL (≈ 0.348 µM) in test [6]. The minimum inhibitory concentration (MIC) in test [7] is 1.56 µg/mL (≈ 2.72 µM); in [8], 12.5 µg/mL (≈ 21.8 µM); in test [9], 0.2 µg/mL (≈ 0.348 µM); in [10] (16 h), 6.25 µg/mL (≈ 10.9 µM); in test [11] (IAM1184, 16 h) it was 0.025 µg/mL (≈ 0.0435 µM); in test [12], 50 µg/mL (≈ 87 µM). Also, the minimum inhibitory concentration (MIC) in [13] is greater than 100 µg/mL; in test [14], less than 0.006 µg/mL; in test [15] (setting [22]), 25 µg/mL (≈ 43.5 µM); in test [16] (setting [23]), 3.12 µg/mL (≈ 5.43 µM); in test [17] (PC1602, 16 h), 0.025 µg/mL (≈ 0.0435 µM); in test [18], 0.0125 µg/mL (≈ 0.0218 µM). In addition, the figures for the MIC in test [19] and in test [20] were 25 µg/mL (≈ 43.5 µM) and 0.39 µg/mL (≈ 0.679 µM), respectively.

For `C=C(O/N=C(\C(=O)N[C@@H]1C(=O)N2C(C(=O)[O-])=C(C[n+]3ccc(C(N)=O)cc3)CS[C@H]12)c1csc(N)n1)C(=O)O` [Example 6, 7β-[2-(2-aminothiazol-4-yl)-2-(1-carboxy-1-vinyloxyimino)acetamido]-3-(4-carbamoyl-1-pyridinio)methyl-3-cephem-4-carboxylate (syn-isomer)], the MIC stood at 0.025 µg/mL (≈ 0.0436 µM) in test [1]; 0.05 µg/mL (≈ 0.0872 µM) in [2]; 0.1 µg/mL (≈ 0.174 µM) in [3]; 0.025 µg/mL (≈ 0.0436 µM) in test [4]; 1.56 µg/mL (≈ 2.72 µM) in test [5] (16 h); 0.025 µg/mL (≈ 0.0436 µM) in [6]. Besides, the MIC in test [7] is 0.39 µg/mL (≈ 0.68 µM); in test [8], 3.12 µg/mL (≈ 5.44 µM); in test [9] it was 0.05 µg/mL (≈ 0.0872 µM); in test [10] (setting [23]) it was 3.12 µg/mL (≈ 5.44 µM); in test [11] (setting [24]) it was less than 0.006 µg/mL; in test [12], 12.5 µg/mL (≈ 21.8 µM). Also, the MIC in test [13] was greater than 100 µg/mL; in test [14], 0.0125 µg/mL (≈ 0.0218 µM); in test [15] (IFO3445, 16 h), 6.25 µg/mL (≈ 10.9 µM); in test [16] (16 h), 1.56 µg/mL (≈ 2.72 µM); in test [17] (PC1602, 10^6 CFU/ml, Mueller Hinton agar, 37° C., 16 hours, read-out: MIC), less than 0.006 µg/mL; in test [18], 0.0125 µg/mL (≈ 0.0218 µM). The minimal inhibitory concentration (MIC) came out at 12.5 µg/mL (≈ 21.8 µM) in test [19] and 0.2 µg/mL (≈ 0.349 µM) in [20].

Consider `C=C(O/N=C(\C(=O)N[C@@H]1C(=O)N2C(C(=O)O)=C(C[n+]3ccc(CS(=O)(=O)[O-])cc3)CS[C@H]12)c1csc(N)n1)C(=O)O` [Example 7, 7β-[2-(2-aminothiazol-4-yl)-2-(1-carboxy-1-vinyloxyimino]acetamido]-3-(4-sulfonatomethyl-1-pyridinio)methyl-3-cephem-4-carboxylic acid (syn-isomer)], for which the minimum inhibitory concentration (MIC) in test [1] was 0.05 µg/mL (≈ 0.08 µM); in test [2] it was 0.1 µg/mL (≈ 0.16 µM); in [3] it was 0.39 µg/mL (≈ 0.624 µM); in [4], 0.025 µg/mL (≈ 0.04 µM); in test [5] (setting [21]) it was 25 µg/mL (≈ 40 µM); in [6], 0.2 µg/mL (≈ 0.32 µM). For the same compound, the MIC is 1.56 µg/mL (≈ 2.5 µM) in test [7]; 12.5 µg/mL (≈ 20 µM) in test [8]; 0.1 µg/mL (≈ 0.16 µM) in [9]; 3.12 µg/mL (≈ 4.99 µM) in test [10] (setting [23]); 0.0125 µg/mL (≈ 0.02 µM) in test [11] (setting [24]); 50 µg/mL (≈ 80 µM) in [12]. Besides, the minimal inhibitory concentration (MIC) in test [13] is greater than 100 µg/mL; in [14], 0.0125 µg/mL (≈ 0.02 µM); in [15] (setting [22]), 3.12 µg/mL (≈ 4.99 µM); in test [16] (setting [23]), 3.12 µg/mL (≈ 4.99 µM); in [17] (PC1602, 16 h) it was 0.025 µg/mL (≈ 0.04 µM); in test [18], 0.0125 µg/mL (≈ 0.02 µM). Moreover, the MIC is 25 µg/mL (≈ 40 µM) in [19] and 0.39 µg/mL (≈ 0.624 µM) in [20].
